The values below come from patent publication US8349862B2, “Pyridine derivatives for the treatment of metabolic disorders related to insulin resistance or hyperglycemia” (Piramal Healthcare Limited, priority 2006, dated 2013).

In data set [1] the test system is insulin resistant adipocytes (differentiated 3T3 L1 fibroblasts). In words: In vitro model exhibiting insulin resistance: 14C-2-deoxyglucose uptake in dexamethasone-treated adipocytes. It is filed as cell-based. As to conditions: test compound 10 μM/mL, Rosiglitazone 0.1 μM. The procedure: The assay was designed as in reference, British Journal of Pharmacology, 130, 351-58, 2000, the disclosure of which is incorporated by reference for the teaching of the assay. The solution of test compound (10 μM/mL) was prepared in DMSO. […] Differentiation into adipocytes was induced by known methods as described below. (J. Biol. […] 3T3 L1 fibroblasts were seeded in 24- or 6-well plates at a density of 0.5-2×10^4 cells/well and were allowed to reach maximal confluency. The confluent fibroblasts were exposed to culture medium for 2 days. […] The mature adipocytes were exposed to dexamethasone, 100 nM added in ethanol, in culture medium and incubated for 2 days. […] The test compound was also present during this period. After 3-4 hours, the medium was aspirated and replaced with Kreb's Ringer phosphate (KRP) buffer at pH 7.4 and with human/porcine insulin, 200 nM. The cells were incubated for 30 minutes at 37° C. […] After exactly 5 minutes, the plates were transferred to ice trays and medium was rapidly aspirated. The cell layer was washed twice with ice-cold phosphate buffered saline, (PBS), pH 7.4. […] Non-specific glucose uptake was assayed in wells exposed to cytochalasin B, inhibitor of glucose transport. […] Statistical analysis was performed using unpaired t-test.

The target in another data set is T1, Mouse PPARγ (Mus musculus, UniProt P37238).
T1 construct: endogenous in cells; host or cells: 3T3-L1 fibroblasts
T1 sequence (P37238 1-505): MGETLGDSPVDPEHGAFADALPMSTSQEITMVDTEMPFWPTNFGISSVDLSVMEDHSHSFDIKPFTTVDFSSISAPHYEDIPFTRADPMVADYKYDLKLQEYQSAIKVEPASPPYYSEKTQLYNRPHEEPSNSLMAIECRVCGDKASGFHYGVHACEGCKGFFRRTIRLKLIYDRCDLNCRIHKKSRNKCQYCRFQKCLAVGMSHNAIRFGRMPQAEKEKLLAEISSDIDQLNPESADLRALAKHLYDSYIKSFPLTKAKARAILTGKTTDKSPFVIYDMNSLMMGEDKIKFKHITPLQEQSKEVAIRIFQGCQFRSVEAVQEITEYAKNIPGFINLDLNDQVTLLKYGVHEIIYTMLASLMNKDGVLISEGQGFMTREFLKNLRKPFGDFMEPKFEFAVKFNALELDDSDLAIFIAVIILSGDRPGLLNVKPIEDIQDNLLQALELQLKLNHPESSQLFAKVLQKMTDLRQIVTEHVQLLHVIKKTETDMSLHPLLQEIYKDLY
The data set can be described thus: Mouse PPARγ assay (TransAM PPARγ ELISA, 3T3-L1 fibroblasts). Format: cell-based. As to conditions: 72 hrs, Compound 1 50 μM, Rosiglitazone 10 μM. The procedure:
The assay was designed as in the reference, Blood, 104(5), 1361-8, 2004, the disclosure of which is incorporated by reference for the teaching of the assay.
3T3-L1 fibroblasts were seeded in 6-well plates at a density of 4×10^4 cells/well and cultured in DMEM containing 10% calf serum. […] The plates were incubated for 72 hrs at 37° C. in a CO2 incubator with fresh medium containing test substances added after first 48 hrs. After 72 hrs, the medium was removed; the cell layer was washed and processed for the PPARγ assay as per the instruction of the manufacturer (Active Motif, North America, California, USA). PPARγ activation was determined using 96-well ELISA assay as per the instruction manual (TransAM PPARγ. Active Motif, Cat 0.40196).

In turn, `CC(=O)N1CCN(c2ccc(Oc3ncc(NS(=O)(=O)c4ccc(Cl)cc4Cl)cc3Cl)cc2)CC1` [Compound 1, N-(6-(4-(4-Acetylpiperazin-1-yl)phenoxy)-5-chloropyridin-3-yl)-2,4-dichlorobenzene-sulfonamide] showed a melting point of 215 to 216 °C. Further, in data set [1], the “% of Rosiglitazone (comparison with Rosiglitazone, glucose uptake)” value is recorded as 61.4%. In addition, in data set [1] (vehicle = 1.0, cut off for activity 1.50 fold), the “Fold Vehicle (fold activity over vehicle, glucose uptake)” value came out at 2.10 ± 0.05. On Mouse PPARγ, the “PPARγ activity (% of rosiglitazone)” value is listed as 5.1 % of rosiglitazone.
